System: 563 solid tumor cell lines
Assay: Luminex assay in PRISM, 5 days treatment (AUC)
Format: cell-based
Design: AUC: scale not given here
Description: The AUC values provided in Table 80 below were calculated based on the Median Fluorescent Intensity values, the primary read out of the Luminex assay in PRISM. The following parameters were used in this assay: • 8 point dose was used in triplicate • max concentration of 10 μM was used with serial 4-fold dilutions (low of […]) • 563 adherent cell lines in 23 pools. • treatment duration was 5 days.

`O=C1CCC(N2Cc3cc(CNC(=O)C(F)(F)c4ccc(Cl)cc4)ccc3C2=O)C(=O)N1` (stereo not shown) [Compound 1, 2-(4-chlorophenyl)-N-((2-(2,6-dioxopiperidin-3-yl)-1-oxoisoindolin-5-yl)methyl)-2,2-difluoroacetamide] was tested, and the AUC (MON_SOFT_TISSUE) was 0.789, the AUC (MPP89_PLEURA) was 0.822 and the AUC (NB1_AUTONOMIC_GANGLIA) was 0.096. For the same molecule, the AUC (NCIH23_LUNG) was 0.951, the AUC (NCIH28_PLEURA) was 0.936 and the AUC (NCIH226_LUNG) was 0.637. For the same molecule, the AUC (NCIH322_LUNG) was 0.714, the AUC (NCIH441_LUNG) was 0.755 and the AUC (NCIH446_LUNG) was 0.820. The AUC (NCIH460_LUNG) was 0.917, the AUC (NCIH520_LUNG) was 0.562 and the AUC (NCIH522_LUNG) was 0.974. The AUC (NCIH596_LUNG) was 0.893, the AUC (NCIH647_LUNG) was 0.957 and the AUC (NCIH650_LUNG) was 0.854. For the same molecule, the AUC (NCIH661_LUNG) was 0.819, the AUC (NCIH747_LARGE_INTESTINE) was 0.836 and the AUC (NCIH838_LUNG) was 0.834. It also gave an AUC (NCIH841_LUNG) of 0.848, an AUC (NCIH1048_LUNG) of 0.116 and an AUC (NCIH1299_LUNG) of 0.806. The AUC (NCIH1339_LUNG) was 0.815, the AUC (NCIH1355_LUNG) was 0.878 and the AUC (NCIH1373_LUNG) was 0.959. The AUC (NCIH1435_LUNG) was 0.862, the AUC (NCIH1437_LUNG) was 0.882 and the AUC (NCIH1563_LUNG) was 0.140. It also gave an AUC (NCIH1568_LUNG) of 0.790, an AUC (NCIH1573_LUNG) of 0.995 and an AUC (NCIH1581_LUNG) of 0.552. For the same molecule, the AUC (NCIH1623_LUNG) was 0.997, the AUC (NCIH1648_LUNG) was 0.828 and the AUC (NCIH1650_LUNG) was 0.835. It also gave an AUC (NCIH1693_LUNG) of 0.949, an AUC (NCIH1703_LUNG) of 0.879 and an AUC (NCIH1793_LUNG) of 0.290. The AUC (NCIH1915_LUNG) was 0.876, the AUC (NCIH1944_LUNG) was 0.911 and the AUC (NCIH1975_LUNG) was 0.866. The AUC (NCIH2009_LUNG) was 0.760, the AUC (NCIH2030_LUNG) was 0.839 and the AUC (NCIH2073_LUNG) was 0.878. It also gave an AUC (NCIH2077_LUNG) of 0.855, an AUC (NCIH2087_LUNG) of 0.866 and an AUC (NCIH2110_LUNG) of 0.837. For the same molecule, the AUC (NCIH2126_LUNG) was 0.820, the AUC (NCIH2170_LUNG) was 0.887 and the AUC (NCIH2172_LUNG) was 0.794. The AUC (NCIH2196_LUNG) was 0.870, the AUC (NCIH2228_LUNG) was 0.851 and the AUC (NCIH2347_LUNG) was 0.324. The AUC (NCIH2444_LUNG) was 0.620, the AUC (NCIH2452_PLEURA) was 0.843 and the AUC (NCIN87_STOMACH) was 0.881. It also gave an AUC (NUGC3_STOMACH) of 0.261, an AUC (NUGC4_STOMACH) of 0.839 and an AUC (OAW28_OVARY) of 0.814. The AUC (OC314_OVARY) was 0.915, the AUC (OC316_OVARY) was 0.872 and the AUC (OE19_OESOPHAGUS) was 0.808. It also gave an AUC (OE21_OESOPHAGUS) of 0.893, an AUC (OE33_OESOPHAGUS) of 0.847 and an AUC (ONS76_CENTRAL_NERVOUS_SYSTEM) of 0.811. The AUC (OSRC2_KIDNEY) was 0.842, the AUC (OV7_OVARY) was 0.597 and the AUC (OV56_OVARY) was 0.874. It also gave an AUC (OV90_OVARY) of 0.939, an AUC (OVCAR8_OVARY) of 0.844 and an AUC (OVISE_OVARY) of 0.630. The AUC (OVKATE_OVARY) was 0.851, the AUC (OVSAHO_OVARY) was 0.617 and the AUC (OVTOKO_OVARY) was 0.907. The AUC (PANC1_PANCREAS) was 0.781, the AUC (PANC0203_PANCREAS) was 0.927 and the AUC (PANC0327_PANCREAS) was 0.813. It also gave an AUC (PANC0403_PANCREAS) of 0.877, an AUC (PANC0504_PANCREAS) of 0.245 and an AUC (PANC1005_PANCREAS) of 0.540. It also gave an AUC (PATU8902_PANCREAS) of 0.145, an AUC (PATU8988T_PANCREAS) of 0.075 and an AUC (PC3_PROSTATE) of 0.735. It also gave an AUC (PC14_LUNG) of 0.500, an AUC (PECAPJ15_UPPER_AERODIGESTIVE_TRACT) of 0.877 and an AUC (PECAPJ41CLONED2_UPPER_AERODIGESTIVE_TRACT) of 0.719. The AUC (PECAPJ49_UPPER_AERODIGESTIVE_TRACT) was 0.843, the AUC (PEDS005TADH_KIDNEY) was 0.448 and the AUC (PEDS015T_SOFT_TISSUE) was 0.814. The AUC (PK1_PANCREAS) was 0.859, the AUC (PK45H_PANCREAS) was 0.843 and the AUC (PK59_PANCREAS) was 0.778. It also gave an AUC (PLCPRF5_LIVER) of 0.833, an AUC (PSN1_PANCREAS) of 0.820 and an AUC (QGP1_PANCREAS) of 0.976. The AUC (RCC10RGB_KIDNEY) was 0.801, the AUC (RDES_BONE) was 0.571 and the AUC (RD_SOFT_TISSUE) was 0.769. The AUC (RERFLCAD1_LUNG) was 0.782, the AUC (RERFLCAD2_LUNG) was 0.874 and the AUC (RERFLCAI_LUNG) was 0.859. For the same molecule, the AUC (RERFLCKJ_LUNG) was 0.824, the AUC (RKN_SOFT_TISSUE) was 0.988 and the AUC (RKO_LARGE_INTESTINE) was 0.847. It also gave an AUC (RL952_ENDOMETRIUM) of 0.403, an AUC (RMUGS_OVARY) of 0.857 and an AUC (RPMI7951_SKIN) of 0.786. For the same molecule, the AUC (RT112_URINARY_TRACT) was 0.766, the AUC (RVH421_SKIN) was 0.839 and the AUC (S117_SOFT_TISSUE) was 0.866. For the same molecule, the AUC (SBC5_LUNG) was 0.948, the AUC (SCC25_UPPER_AERODIGESTIVE_TRACT) was 0.782 and the AUC (SF126_CENTRAL_NERVOUS_SYSTEM) was 0.862. It also gave an AUC (SF295_CENTRAL_NERVOUS_SYSTEM) of 0.917, an AUC (SF539_CENTRAL_NERVOUS_SYSTEM) of 0.888 and an AUC (SH4_SKIN) of 0.537. The AUC (SH10TC_STOMACH) was 0.886.
